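Method: 48-hour compound exposure of cells in 96-well plates, five concentrations, linear interpolation of endpoints. GI50 is the concentration that inhibits growth by half.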 Calls of active or inactive are those of the source. Cut-off read from the data, not from the text of the source: active = GI50 up to about 1.1 µM and inactive = higher.
Legend:
Test in all cases: inhibition of tumour cell growth, NCI panel, 48 h
NCI-H522 = test system: NCI-H522
COLO 205 = test system: COLO 205
DU-145 = test system: DU-145
A549 = test system: A549
OVCAR-4 = test system: OVCAR-4
CCRF-CEM = test system: CCRF-CEM
KM12 = test system: KM12
MDA-N = test system: MDA-N
IGROV-1 = test system: IGROV-1
EKVX = test system: EKVX
TK-10 = test system: TK-10
U-251 = test system: U-251
MOLT-4 = test system: MOLT-4
HCC 2998 = test system: HCC 2998
786-0 = test system: 786-0
RXF 393 = test system: RXF 393
UO-31 = test system: UO-31
SK-MEL-28 = test system: SK-MEL-28
OVCAR-3 = test system: OVCAR-3
SR = test system: SR

Measured: GI50

COc1cc(/C=C2\NC(=O)N(/C=C3\C(=O)Oc4ccccc4C3=O)C2=O)ccc1O
inactive: NCI-H522 29.2 µM | COLO 205 78.2 µM | DU-145 87.1 µM | A549 > 100 µM | OVCAR-4 91.8 µM | CCRF-CEM 32.7 µM | KM12 54.1 µM | MDA-N > 100 µM | IGROV-1 62.7 µM | EKVX > 100 µM | TK-10 > 100 µM | U-251 76.6 µM | MOLT-4 36.2 µM | HCC 2998 41.2 µM | 786-0 88.7 µM | RXF 393 25.1 µM | UO-31 44.4 µM

CCOC(=O)[C@@H]1C2C(=C[C@H]3[C@H]1C(=O)N1CCCC[C@H]31)CCCN2C(=O)OCc1ccccc1 (stereo partly specified)
inactive: NCI-H522 18.5 µM | COLO 205 23.9 µM | DU-145 39.1 µM | A549 36.1 µM | OVCAR-4 37.8 µM | SK-MEL-28 59.7 µM | CCRF-CEM 22.3 µM | KM12 36.2 µM | MDA-N 35.7 µM | IGROV-1 41.3 µM | EKVX 38.3 µM | TK-10 75.9 µM | OVCAR-3 30.1 µM | U-251 43.6 µM | MOLT-4 14.3 µM | HCC 2998 15.1 µM | 786-0 54.5 µM | RXF 393 47.8 µM | UO-31 32.8 µM

OC1CCC(COC(c2ccccc2)(c2ccccc2)c2ccccc2)O1 (stereo unspecified)
inactive: NCI-H522 17.7 µM | COLO 205 17.1 µM | DU-145 20.8 µM | A549 17.7 µM | SK-MEL-28 18 µM | CCRF-CEM 14.2 µM | KM12 17.7 µM | MDA-N 18.7 µM | IGROV-1 18.2 µM | EKVX > 10 µM | TK-10 > 10 µM | OVCAR-3 18.4 µM | U-251 18.8 µM | MOLT-4 11.1 µM | HCC 2998 16.4 µM | SR > 10 µM | 786-0 19.4 µM | UO-31 17.3 µM

N/C(COc1ccc(Cl)cc1)=N\NC(=O)c1ccncc1
inactive: NCI-H522 > 100 µM | COLO 205 > 100 µM | DU-145 > 100 µM | A549 > 100 µM | OVCAR-4 > 100 µM | SK-MEL-28 > 100 µM | CCRF-CEM 51.1 µM | KM12 > 100 µM | MDA-N > 100 µM | IGROV-1 > 100 µM | EKVX 76.2 µM | TK-10 > 100 µM | OVCAR-3 > 100 µM | U-251 > 100 µM | MOLT-4 > 100 µM | HCC 2998 > 100 µM | 786-0 54.3 µM | RXF 393 35.9 µM

COc1cccc(/C=C\c2ccnc3ccccc23)c1
inactive: NCI-H522 > 10 µM | COLO 205 > 10 µM | DU-145 > 10 µM | A549 > 10 µM | OVCAR-4 > 10 µM | SK-MEL-28 > 10 µM | CCRF-CEM > 10 µM | KM12 > 10 µM | MDA-N > 10 µM | IGROV-1 > 10 µM | EKVX > 10 µM | TK-10 > 10 µM | OVCAR-3 > 10 µM | U-251 > 10 µM | MOLT-4 > 10 µM | HCC 2998 > 10 µM | 786-0 > 10 µM | RXF 393 > 10 µM | UO-31 > 10 µM

C=CC(=C)CCC(Br)C(C)(C)Cl (stereo unspecified)
inactive: NCI-H522 24.3 µM | COLO 205 > 100 µM | DU-145 > 100 µM | A549 > 100 µM | OVCAR-4 > 100 µM | SK-MEL-28 > 100 µM | CCRF-CEM 87.5 µM | KM12 > 100 µM | MDA-N > 100 µM | IGROV-1 > 100 µM | EKVX > 100 µM | TK-10 > 100 µM | OVCAR-3 > 100 µM | U-251 > 100 µM | MOLT-4 85.1 µM | HCC 2998 > 100 µM | 786-0 > 100 µM | RXF 393 > 100 µM | UO-31 > 100 µM

c1ccc(C[P+]2(c3ccccc3)c3ccccc3-c3ccccc32)cc1
inactive: NCI-H522 > 100 µM | COLO 205 > 100 µM | DU-145 > 100 µM | A549 > 100 µM | SK-MEL-28 > 100 µM | CCRF-CEM > 100 µM | KM12 > 100 µM | MDA-N > 100 µM | IGROV-1 > 100 µM | EKVX > 100 µM | TK-10 > 100 µM | OVCAR-3 > 100 µM | MOLT-4 > 100 µM | HCC 2998 > 100 µM | 786-0 > 100 µM | RXF 393 > 100 µM | UO-31 > 100 µM

C=C1[C@@H](OC(C)=O)/C=C/C2C3C(=O)[C@@](C)(OC(C)=O)[C@H]([C@H](OC(C)=O)[C@]4(O)[C@@H](C)C(=O)O[C@H]4[C@H]1Cl)[C@@]23C (stereo partly specified)
inactive: NCI-H522 > 100 µM | COLO 205 > 100 µM | DU-145 > 100 µM | A549 > 100 µM | OVCAR-4 > 100 µM | SK-MEL-28 > 100 µM | CCRF-CEM > 100 µM | KM12 > 100 µM | MDA-N > 100 µM | IGROV-1 > 100 µM | EKVX > 100 µM | TK-10 > 100 µM | OVCAR-3 > 100 µM | U-251 > 100 µM | MOLT-4 > 100 µM | HCC 2998 > 100 µM | 786-0 > 100 µM | RXF 393 > 100 µM | UO-31 > 100 µM
